In publication PMC2747106 (Journal of veterinary pharmacology and therapeutics, 2009):
Where a name gives a salt, the structure may show the parent alone.

Legend:
[1] = tested on: organic cation transporters (TEA); organic anion transporters (ES); details: bovine
[2] = tested on: monolayer of BME-UV cells
[3] = tested on: organic cation transporters (OCT); assay: Inhibition study: effect of inhibitors on TEA permeation across BME-UV monolayer; assay type: cell-based, bovine; details: inhibitor added to donor compartment
[4] = tested on: organic anion transporters (OAT); assay: Inhibition study: effect of inhibitors on ES permeation across BME-UV monolayer; assay type: cell-based, bovine; details: inhibitor added to donor compartment
[5] = tested on: mouse mammary epithelial monolayer; details: ref Toddywalla et al., 1997; cited from earlier work
[6] = tested on: human mammary epithelial monolayer; details: ref Kimura et al., 2006; cited from earlier work
[7] = bovine
[8] = either direction (data not shown)

In the case of `C[C@]12CC[C@@H]3c4ccc(OS(=O)(=O)O)cc4CC[C@H]3[C@@H]1CCC2=O` [ES, estrone sulfate], the Papp at 4 h (in vitro) is reported as 122 ± 34 ×10⁻⁶ cm/s, the Papp A→B at 4 h, 100 µM [1] is reported as 0.66 ± 0.06 ×10⁻⁶ cm/s and the Papp B→A at 4 h, 100 µM [1] is reported as 2.2 ± 0.1 ×10⁻⁶ cm/s.

In the case of `CC[N+](CC)(CC)CC` [TEA, Tetraethylammonium bromide], the Papp at 4 h (in vitro) is reported as 161 ± 18 ×10⁻⁶ cm/s, the “permeation rate constant for TEA relative to ES, Ap-to-BL” value ([2]; Ap-to-BL direction) is reported as 3 times and the “permeation rate constant for TEA relative to ES, BL-to-Ap” value ([2]; BL-to-Ap direction) is reported as 2 times. The Papp A→B at 4 h, 100 µM [1] was 2 ± 0.02 ×10⁻⁶ cm/s and the Papp B→A at 4 h, 100 µM [1] was 5.1 ± 0.4 ×10⁻⁶ cm/s.

In the case of `CCN1C(=Cc2ccc3ccccc3[n+]2CC)C=Cc2ccccc21.[I-]` [cyanine, 1,1-Diethyl-2,2-cyanine iodide], the “decrease of permeation rate constant of TEA by inhibitor” value ([3]; BL-to-Ap direction only) is reported as “approximately 49%” and the “effect of inhibitor on permeation rate constant of ES” value [4, 8] is reported as “not changed significantly”.

For `OC[C@@H](O)[C@@H](O)[C@H](O)[C@H](O)CO` [mannitol], the Papp of mannitol [5] is listed as 1.94 ×10⁻⁶ cm/s, the Papp of mannitol [6] is listed as 2.6 ×10⁻⁶ cm/s and the Papp at 4 h, 2 µM [7] is listed as 0.91 ± 0.4 ×10⁻⁶ cm/s.

In the case of `CCCN(CCC)S(=O)(=O)c1ccc(C(=O)O)cc1` [probenecid], the “effect of inhibitor on permeation rate constant of TEA” value [3, 8] is reported as “not changed significantly” and the “decrease of permeation rate constant of ES by inhibitor” value ([4]; BL-to-Ap direction only) is reported as “approximately 36%”.
